Positions count from the first letter of the chain named.
Columns and labels:
POLγA:G848S = target: T1, POLγA:G848S (Homo sapiens, UniProt P54098, G848S); experiment: DNA polymerization assay, POLγA:G848S mutant; assay type: biochemical; conditions: stimulation of polymerase activity, primed M13mp18 ssDNA, 37° C. 2 hours; read-out: G848S AC50
T1 sequence (P54098 1-1239 G848S): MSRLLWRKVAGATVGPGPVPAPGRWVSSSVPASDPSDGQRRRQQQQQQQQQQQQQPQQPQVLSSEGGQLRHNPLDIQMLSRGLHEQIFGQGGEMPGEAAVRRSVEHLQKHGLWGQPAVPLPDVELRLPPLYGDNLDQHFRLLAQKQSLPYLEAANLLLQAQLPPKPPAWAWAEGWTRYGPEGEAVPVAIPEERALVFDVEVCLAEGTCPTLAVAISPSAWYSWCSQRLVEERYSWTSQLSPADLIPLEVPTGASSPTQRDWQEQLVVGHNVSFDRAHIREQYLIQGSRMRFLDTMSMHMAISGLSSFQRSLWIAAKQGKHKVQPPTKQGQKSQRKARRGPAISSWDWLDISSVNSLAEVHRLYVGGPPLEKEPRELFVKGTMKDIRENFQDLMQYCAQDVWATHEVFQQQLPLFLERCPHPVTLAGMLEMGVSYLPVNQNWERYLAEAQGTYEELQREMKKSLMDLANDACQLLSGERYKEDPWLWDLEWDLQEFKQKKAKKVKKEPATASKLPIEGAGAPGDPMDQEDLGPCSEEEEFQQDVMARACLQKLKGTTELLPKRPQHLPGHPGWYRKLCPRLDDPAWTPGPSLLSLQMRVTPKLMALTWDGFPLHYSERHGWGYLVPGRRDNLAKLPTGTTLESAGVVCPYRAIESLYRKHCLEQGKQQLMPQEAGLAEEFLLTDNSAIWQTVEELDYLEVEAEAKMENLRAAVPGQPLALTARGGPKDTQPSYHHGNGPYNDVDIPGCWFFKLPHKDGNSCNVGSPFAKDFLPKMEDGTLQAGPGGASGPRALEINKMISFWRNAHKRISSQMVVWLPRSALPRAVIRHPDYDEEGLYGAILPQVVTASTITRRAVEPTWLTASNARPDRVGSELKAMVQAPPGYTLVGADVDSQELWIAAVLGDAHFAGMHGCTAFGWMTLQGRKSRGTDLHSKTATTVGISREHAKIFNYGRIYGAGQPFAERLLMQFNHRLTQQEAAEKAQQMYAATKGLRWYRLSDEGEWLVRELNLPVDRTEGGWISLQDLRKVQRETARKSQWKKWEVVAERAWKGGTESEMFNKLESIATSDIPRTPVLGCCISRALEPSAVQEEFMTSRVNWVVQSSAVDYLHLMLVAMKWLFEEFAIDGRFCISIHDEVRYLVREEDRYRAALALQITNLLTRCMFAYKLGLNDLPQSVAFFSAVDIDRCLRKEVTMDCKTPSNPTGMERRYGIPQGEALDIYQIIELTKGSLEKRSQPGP
T1 sequence (Q9UHN1 1-485 partner): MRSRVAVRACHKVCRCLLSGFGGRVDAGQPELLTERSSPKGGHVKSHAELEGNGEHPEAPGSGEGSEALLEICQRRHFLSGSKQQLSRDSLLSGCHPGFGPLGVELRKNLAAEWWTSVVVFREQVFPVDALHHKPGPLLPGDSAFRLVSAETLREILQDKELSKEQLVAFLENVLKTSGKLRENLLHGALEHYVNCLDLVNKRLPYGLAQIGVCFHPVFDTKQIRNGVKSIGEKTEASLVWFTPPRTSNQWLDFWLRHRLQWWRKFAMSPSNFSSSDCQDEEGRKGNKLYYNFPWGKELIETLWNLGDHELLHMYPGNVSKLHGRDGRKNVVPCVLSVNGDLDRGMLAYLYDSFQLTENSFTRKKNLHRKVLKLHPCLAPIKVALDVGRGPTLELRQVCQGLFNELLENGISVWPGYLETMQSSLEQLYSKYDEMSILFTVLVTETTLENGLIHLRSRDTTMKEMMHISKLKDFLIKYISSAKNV
Description: DNA Polymerization Assay to Monitor Effects on Human Wildtype POLγ and Four Disease-Causing Mutant Variants of Human POLγ.
The ability of small molecules to stimulate the polymerase activity of POLγ was analyzed in a quantitative fluorescence SYBR Green I assay with fluorescence intensity (FI) readout.
In the presence of dNTPs, wild type human POLγ and mutant derivatives thereof were incubated with single-stranded, circular M13mp18 ssDNA hybridized to a short DNA oligonucleotide that functions as a primer for initiation of DNA synthesis. POLγ and mutant derivatives thereof will extend the primer and use the M13mp18 molecule as a template to synthesize long stretches of double-stranded DNA. SYBR Green I, which is a double-stranded DNA-binding dye, was used to quantify formation of double-stranded DNA in the reaction. When bound to double-stranded DNA, SYBR Green I fluorescence increases by up to 100-fold.
The assay was performed in the 384-well plate format. Upon addition of compounds, changes in double-stranded DNA synthesis activity can be monitored by following effects on fluorescent intensity.
The reactions also contained the accessory POLγB subunit, and the human mitochondrial single-stranded DNA binding protein (mtSSB).
The DNA template mixture used in the assay contained 0.5 nM primed M13 mp18 ssDNA, 400 nM mtSSB, 0.1 mM Tris-HCl (pH 8.0), 0.1 mM dNTP, 10 mM MgCl2, 0.1 mg/mL BSA, 1 mM TCEP solution, and 0.02% Triton X-100. The DNA template mixture for the wild type protein contained either 100 μM dNTP, 1 μM dNTP, or 0.1 μM dNTP, designated in Table 2 as 100 μM, 1 μM, and 0.1 μM, respectfully.
(§1) Microplates with compounds (0.1 μL in each well) to be tested in the assay were prepared from 10 mM compound stocks in 100% DMSO, and equal amounts of DMSO without any compound were added to positive and negative control wells.
The protein mixture was dispensed (5 μL into each well) into compound plates and incubated at 37° C. for 15 minutes. After incubation, 5 μL of the DNA template mixture was dispensed into each well. The plates were then incubated at 37° C. for 2 hours.
(§2) During incubation, a combined stop buffer and detection reagent solution was prepared. The buffer contained 25 mM EDTA (pH 8.0), 0.02% Triton X-100, and SYBR Green I [Invitrogen] diluted 10,000× (for fluorescent readout). EDTA will stop the enzymatic reaction by chelating magnesium ions.

[1] = target: T2, human POLγ 3′-5′ exonuclease activity (Homo sapiens, UniProt P54098); experiment: Exonuclease inhibition assay with human POLγ (SYBR Green I fluorescence); assay type: biochemical; conditions: POLγA 1 nM, POLγB 1.3 nM, 5 nM exonuclease template, no dNTPs, 37° C. 2.5 hours
T2 sequence (P54098 1-1239): T1 sequence (P54098 1-1239 G848S) with S848G
T2 sequence (Q9UHN1 1-485 partner): T1 sequence (Q9UHN1 1-485 partner)
Description: Exonuclease inhibition assay with human POLγ.
The ability of small molecules to inhibit the 3′-5′ exonuclease activity of POLγ was analyzed in a quantitative fluorescence SYBR Green I assay with fluorescence intensity (FI) readout.
Human POLγ was incubated with a linear, partially double-stranded template containing an 85 base pair double-stranded DNA stretch and a 15 nucleotides long single-stranded 5′-tail (hereafter referred to as the “exonuclease template”). […] When bound to double-stranded DNA, SYBR Green I fluorescence increases by up to 100-fold. In the absence of deoxynucleotide triphosphates (dNTPs), the exonuclease activity of POLγ degrades the 85-mer strand, which leads to the formation of single-stranded DNA (ssDNA) and decreased fluorescent intensity. The assay was performed in a 384-well plate format.
The exonuclease template used was generated by hybridization of a 100 nucleotides long, single-stranded DNA molecule with an inverted dT at the 3′-end (5′-TTTTTTTTTATCCGGGCTCGTTATCTAAGCTGCTCTTGGTAGGCATTGACGTCCATACTGCAAATTCAGCTCTGTGCAGTTAGGCAGGAGTCTACAAGC invT-3′) to an 85 nucleotides long single-stranded DNA molecule (5′-AGCTTGTAGACTCCTGCCTAACTGCACAGAGCTGAATTTGCAGTATGGACGTCAATGCCTACCAGAGCAGCTTAGATAACGAGC-3′), using a Bio-Rad T100 Thermal Cycler. The inverted dT is characterized by a 3′-3′ linkage, which inhibits both degradation of the 3′-5′ exonuclease activity and extension by DNA polymerases.
POLγ is an heterotrimer of one POLγA subunit (harboring exonuclease and DNA polymerase activities) and two accessory POLγB subunits. Proteins used in the exonuclease assay were POLγA (NP_002684) and POLγB (NP_009146).
The protein mixture used in the assays contained POLγA (1 nM), POLγB (1.3 nM, concentration calculated as a dimer), 25 mM Tris-HCl (pH 8.0), 0.1 mg/mL bovine serum albumin, 1 mM Bond-Breaker TCEP solution (pH 7) [Thermo Fisher], 25 mM NaCl, and 0.02% Triton X-100.
The DNA template mixture used in the assay contained 5 nM of the exonuclease template, 25 mM Tris-HCl (pH 8.0), 10 mM MgCl2, 0.1 mg/mL bovine serum albumin, 1 mM Bond-Breaker TCEP solution [Thermo Fisher], and 0.02% Triton X-100.
as §1
The protein mixture containing POLγ was dispensed (5 μL in each well) into compound plates and incubated at 37° C. for 15 minutes to allow compound binding to the POLγ complex. After incubation, 5 μL of the DNA template mixture was dispensed into each well. The plates were incubated at 37° C. for 2.5 hours.
as §2
After the 2.5-hour incubation period, the SYBR Green I solution was added (10 μL) to the screening plates and the plates were incubated at room temperature in the dark for 20 minutes before the fluorescent signal was read between […] on a BMG Pherastar microtiter plate reader.

AC50 (POLγA:G848S) | IC50 [1] | Compound
> 100 µM |  | Cc1cc(S(=O)(=O)Nc2cccc(C(=O)N[C@@H](C)c3ccccc3)c2)c(C)cc1Cl [Example 45, (S)-3-((4-chloro-2,5-dimethylphenyl)sulfonamido)-N-(1-phenylethyl)benzamide]
 | 7 µM | Cc1cc(S(=O)(=O)Nc2cccc(-c3nc(C4CC4)cn3C)c2)c(C)cc1Cl [Example 186, 4-chloro-N-(3-(4-cyclopropyl-1-methyl-1H-imidazol-2-yl)phenyl)-2,5-dimethylbenzenesulfonamide]
